{"source": "paper PMC7732531", "about": "(Frontiers in Pharmacology, 2020)", "key": {"[1]": {"experiment": "Pilot enzyme kinetic study in liver microsomes", "assay_type": "in vitro ADME", "source_text": "Since identification of F a, F g and F h is of importance to mechanistic understanding the systemic exposure, the related efficacy, and the potent drug-drug interactions, a number of in vivo and in vitro models have been developed to elucidate F a, F g and F h. As for in vitro methods, liver microsomes, S9 or hepatocytes are all well accepted for the generation of hepatic clearance and F h via in vitro-in vivo extrapolation (IVIVE) ([Houston and Carlile, 1998]). Furthermore, functionally mature enterocytes mainly express CYPs and UGTs. Among UGT isoforms, UGT1A8 and UGT1A10 show gut-specific expression patterns ([Kaminsky and Zhang, 2003]; [Court et al., 2012]). However, the achievement of intestinal clearance and (F g) from intestinal microsomes is limited by a lack of consensus on the appropriate scaling factors and a low availability of high-quality tissue. In the present study, in vitro metabolic stability of YL-IPA08 was performed in liver microsomes and intestinal microsomes of rat and human in the presence of NADPH and UDPGA to identify the metabolizing enzyme, organ, and species difference. […] UGT is not involved in the depletion of YL-IPA08. Although the CYP-mediated elimination in HIM and RIM were also observed, with great difference of enzyme expression level between liver and gut, the contribution of intestinal metabolism to the oral bioavailability is hard to define. […]"}, "[2]": {"settings": "rat, microsomes, 0 h, 1 μM, pH 7.4"}}}
{"smiles": "CCN(Cc1ccccn1)C(=O)Cc1c(-c2ccc(Cl)c(Cl)c2)nc2cc(C)ccn12", "note": "[YL-IPA08]", "values": [{"measurement": "K m", "setting": "[1]", "value": "1 to 3", "unit": "µM"}, {"measurement": "percent of remaining", "setting": "[2]", "value": 100.00, "unit": "%"}]}
